# Experimental data published in US20200325127A1, “PYRIDIN-3-YL ACETIC ACID DERIVATIVES AS INHIBITORS OF HUMAN IMMUNODEFICIENCY VIRUS REPLICATION” (priority 2016, published 2020).
# Test system: NL-RLuc virus
# Experiment: Inhibition of HIV replication (NL-RLuc luciferase reporter virus in MT-2 cells)
# Format: cell-based
# Conditions: Human immunodeficiency virus 1, MT2, 120 h, read-out: Activity
# Source text: Inhibition of HIV replication: A recombinant NL-RLuc proviral clone was constructed in which a section of the nef gene from NL4-3 was replaced with the Renilla Luciferase gene. This virus is fully infectious and can undergo multiple cycles of replication in cell culture. In addition, the luciferous reporter provides a simple and easy method for quantitating the extent of virus growth and consequently, the antiviral activity of test compounds. The plasmid pNLRLuc contains the proviral NL-Rluc DNA cloned into pUC18 at the PvuII site. The NL-RLuc virus was prepared by transfection of 293T cells with the plasmid pNLRLuc. Transfections were performed using the LipofectAMINE PLUS kit from Invitrogen (Carlsbad, Calif.) according to the manufacturer and the virus generated was titered in MT-2 cells. For susceptibility analyses, the titrated virus was used to infect MT-2 cells in the presence of compound, and after 5 days of incubation, cells were processed and quantitated for virus growth by the amount of expressed luciferase. Assay media was RPMI 1640 supplemented with 10% heat inactivated fetal bovine serum (FBS), 100 units/ml penicillin G/100 units/ml streptomycin, 10 mM HEPES buffer pH 7.55 and 2 mM L-glutamine. The results from at least 2 experiments were used to calculate the EC50 values. Luciferase was quantitated using the Dual Luciferase kit from Promega (Madison, Wis.). Susceptibility of viruses to compounds was determined by incubation in the presence of serial dilutions of the compound. The 50% effective concentration (EC50) was calculated by using the exponential form of the median effect equation where (Fa)=1/[1+(ED50/drug conc.)^m](Johnson V A, Byington R T. Infectivity Assay. In Techniques in HIV Research. ed. Aldovini A, Walker B D. 71-76. New York: Stockton Press. 1990). Activity equal to A refers to a compound having an EC50≤100 nM, while B and C denote compounds having an EC50 between 100 nM and 1 uM (B) or >1 uM (C).
row,SMILES,EC50 [µM]
1,Cc1nc(C)c([C@H](OC(C)(C)C)C(=O)O)c(N2CCC(C)(C)CC2)c1-c1ccc2c(c1)CCN(c1cc(Cl)ncn1)C2 [Compound 27],< 0.1
2,Cc1nc(C)c([C@H](OC(C)(C)C)C(=O)O)c(N2CCC(C)(C)CC2)c1-c1ccc2c(c1)CCN(c1cc(Cl)cnn1)C2 [Compound 28],< 0.1
3,Cc1cc(N2CCc3cc(-c4c(C)nc(C)c([C@H](OC(C)(C)C)C(=O)O)c4N4CCC(C)(C)CC4)ccc3C2)nc(C)n1 [Compound 29],< 0.1
4,Cc1ccnc(N2CCc3cc(-c4c(C)nc(C)c([C@H](OC(C)(C)C)C(=O)O)c4N4CCC(C)(C)CC4)ccc3C2)n1 [Compound 30],< 0.1
5,COc1cc(N2CCc3cc(-c4c(C)nc(C)c([C@H](OC(C)(C)C)C(=O)O)c4N4CCC(C)(C)CC4)ccc3C2)ncn1 [Compound 31],< 0.1
6,CCc1ccnc(N2CCc3cc(-c4c(C)nc(C)c([C@H](OC(C)(C)C)C(=O)O)c4N4CCC(C)(C)CC4)ccc3C2)n1 [Compound 32],< 0.1
7,CCc1cnc(N2CCc3cc(-c4c(C)nc(C)c([C@H](OC(C)(C)C)C(=O)O)c4N4CCC(C)(C)CC4)ccc3C2)nc1 [Compound 33],< 0.1
8,COc1cnc(N2CCc3cc(-c4c(C)nc(C)c([C@H](OC(C)(C)C)C(=O)O)c4N4CCC(C)(C)CC4)ccc3C2)nc1 [Compound 34],< 0.1
9,Cc1nc(C)c([C@H](OC(C)(C)C)C(=O)O)c(N2CCC(C)(C)CC2)c1-c1ccc2c(c1)CCN(c1ccc(C(F)(F)F)nn1)C2 [Compound 35],< 0.1
10,CNc1nccc(N2CCc3cc(-c4c(C)nc(C)c([C@H](OC(C)(C)C)C(=O)O)c4N4CCC(C)(C)CC4)ccc3C2)n1 [Compound 36],< 0.1
11,Cc1nc(C)c([C@H](OC(C)(C)C)C(=O)O)c(N2CCC(C)(C)CC2)c1-c1ccc2c(c1)CCN(c1nc(N3CCOCC3)nc(N3CCOCC3)n1)C2 [Compound 37],< 0.1
12,Cc1nc(C)c([C@H](OC(C)(C)C)C(=O)O)c(N2CCC(C)(C)CC2)c1-c1ccc2c(c1)CCN(c1ncncc1-c1ccccc1)C2 [Compound 38],< 0.1
13,CSc1nccc(N2CCc3cc(-c4c(C)nc(C)c([C@H](OC(C)(C)C)C(=O)O)c4N4CCC(C)(C)CC4)ccc3C2)n1 [Compound 39],< 0.1
14,COc1nccc(N2CCc3cc(-c4c(C)nc(C)c([C@H](OC(C)(C)C)C(=O)O)c4N4CCC(C)(C)CC4)ccc3C2)n1 [Compound 40],< 0.1
15,Cc1nccc(N2CCc3cc(-c4c(C)nc(C)c([C@H](OC(C)(C)C)C(=O)O)c4N4CCC(C)(C)CC4)ccc3C2)n1 [Compound 41],< 0.1
16,Cc1nc(C)c([C@H](OC(C)(C)C)C(=O)O)c(N2CCC(C)(C)CC2)c1-c1ccc2c(c1)CCN(c1cc(N)ncn1)C2 [Compound 42],< 0.1
17,Cc1nc(C)c([C@H](OC(C)(C)C)C(=O)O)c(N2CCC(C)(C)CC2)c1-c1ccc2c(c1)CCN(c1cc(C3CC3)ncn1)C2 [Compound 43],< 0.1
18,Cc1cc(N2CCc3cc(-c4c(C)nc(C)c([C@H](OC(C)(C)C)C(=O)O)c4N4CCC(C)(C)CC4)ccc3C2)nc(C(C)C)n1 [Compound 44],< 0.1
19,Cc1nc(C)c([C@H](OC(C)(C)C)C(=O)O)c(N2CCC(C)(C)CC2)c1-c1ccc2c(c1)CCN(c1ccccn1)C2 [Compound 46],< 0.1
20,COc1ccc(N2CCc3cc(-c4c(C)nc(C)c([C@H](OC(C)(C)C)C(=O)O)c4N4CCC(C)(C)CC4)ccc3C2)nn1 [Compound 47],< 0.1
21,Cc1nc(C)c([C@H](OC(C)(C)C)C(=O)O)c(N2CCC(C)(C)CC2)c1-c1ccc2c(c1)CCN(c1cc(N3CCCC3)ncn1)C2 [Compound 48],< 0.1

row,SMILES,EC50 [µM]
1,Cc1nc(C)c([C@H](OC(C)(C)C)C(=O)O)c(N2CCC(C)(C)CC2)c1-c1ccc2c(c1)CCN(c1cc(-n3ccnc3)ncn1)C2 [Compound 49],< 0.1
2,COc1ncnc(N2CCc3cc(-c4c(C)nc(C)c([C@H](OC(C)(C)C)C(=O)O)c4N4CCC(C)(C)CC4)ccc3C2)c1C [Compound 50],< 0.1
3,COCc1cc(N2CCc3cc(-c4c(C)nc(C)c([C@H](OC(C)(C)C)C(=O)O)c4N4CCC(C)(C)CC4)ccc3C2)ncn1 [Compound 51],< 0.1
4,Cc1nc(C)c([C@H](OC(C)(C)C)C(=O)O)c(N2CCC(C)(C)CC2)c1-c1ccc2c(c1)CCN(c1ncnc3c1CCC3)C2 [Compound 52],< 0.1
5,Cc1nc(C)c([C@H](OC(C)(C)C)C(=O)O)c(N2CCC(C)(C)CC2)c1-c1ccc2c(c1)CCN(c1cc(Nc3ccccc3)ncn1)C2 [Compound 53],< 0.1
6,Cc1nc(C)c([C@H](OC(C)(C)C)C(=O)O)c(N2CCC(C)(C)CC2)c1-c1ccc2c(c1)CCN(c1ncnc(Cl)c1N)C2 [Compound 54],< 0.1
7,Cc1nc(C)c([C@H](OC(C)(C)C)C(=O)O)c(N2CCC(C)(C)CC2)c1-c1ccc2c(c1)CCN(c1ncnc(N)c1C)C2 [Compound 55],< 0.1
8,COc1cc(N2CCc3cc(-c4c(C)nc(C)c([C@H](OC(C)(C)C)C(=O)O)c4N4CCC(C)(C)CC4)ccc3C2)nc(N)n1 [Compound 56],< 0.1
9,COc1cnc(SC)nc1N1CCc2cc(-c3c(C)nc(C)c([C@H](OC(C)(C)C)C(=O)O)c3N3CCC(C)(C)CC3)ccc2C1 [Compound 57],< 0.1
10,Cc1nc(C(F)(F)F)nc(N2CCc3cc(-c4c(C)nc(C)c([C@H](OC(C)(C)C)C(=O)O)c4N4CCC(C)(C)CC4)ccc3C2)c1C [Compound 58],< 0.1
11,Cc1nc(C)c([C@H](OC(C)(C)C)C(=O)O)c(N2CCC(C)(C)CC2)c1-c1ccc2c(c1)CCN(c1ccnc(C3CC3)n1)C2 [Compound 59],< 0.1
12,Cc1nc(C)c([C@H](OC(C)(C)C)C(=O)O)c(N2CCC(C)(C)CC2)c1-c1ccc2c(c1)CCN(c1ccnc(C(F)(F)F)n1)C2 [Compound 60],< 0.1
13,Cc1cc(N2CCc3cc(-c4c(C)nc(C)c([C@H](OC(C)(C)C)C(=O)O)c4N4CCC(C)(C)CC4)ccc3C2)nc(N)n1 [Compound 61],< 0.1
14,COc1cc(N2CCc3cc(-c4c(C)nc(C)c([C@H](OC(C)(C)C)C(=O)O)c4N4CCC(C)(C)CC4)ccc3C2)nc(SC)n1 [Compound 62],< 0.1
15,CSc1nc(N2CCc3cc(-c4c(C)nc(C)c([C@H](OC(C)(C)C)C(=O)O)c4N4CCC(C)(C)CC4)ccc3C2)cc(C(F)(F)F)n1 [Compound 63],< 0.1
16,Cc1nc(NC(C)(C)C)cc(N2CCc3cc(-c4c(C)nc(C)c([C@H](OC(C)(C)C)C(=O)O)c4N4CCC(C)(C)CC4)ccc3C2)n1 [Compound 64],< 0.1
17,Cc1nc(O)cc(N2CCc3cc(-c4c(C)nc(C)c([C@H](OC(C)(C)C)C(=O)O)c4N4CCC(C)(C)CC4)ccc3C2)n1 [Compound 65],0.1 to 1
18,Cc1nc(C)c([C@H](OC(C)(C)C)C(=O)O)c(N2CCC(C)(C)CC2)c1-c1ccc2c(c1)CCN(c1cc(O)nc(N)n1)C2 [Compound 66],0.1 to 1
19,Cc1nc(C)c([C@H](OC(C)(C)C)C(=O)O)c(N2CCC(C)(C)CC2)c1-c1ccc2c(c1)CCN(c1ccnc(N)n1)C2 [Compound 67],< 0.1
20,Cc1nc(C)c([C@H](OC(C)(C)C)C(=O)O)c(N2CCC(C)(C)CC2)c1-c1ccc2c(c1)CCN(c1nnc(-c3ccccc3)cc1C#N)C2 [Compound 68],< 0.1
21,Cc1cn(-c2ccc(N3CCc4cc(-c5c(C)nc(C)c([C@H](OC(C)(C)C)C(=O)O)c5N5CCC(C)(C)CC5)ccc4C3)nn2)cn1 [Compound 69],< 0.1

# Same assay, conditions: Human immunodeficiency virus 1, MT2, 120 h, read-out: EC50 μM
row,SMILES,EC50 [µM]
1,Cc1cc(N2CCc3cc(-c4c(C)nc(C)c([C@H](OC(C)(C)C)C(=O)O)c4N4CCC(C)(C)CC4)ccc3C2)nc(C)n1 [Compound 29],0.004
2,Cc1nc(C)c([C@H](OC(C)(C)C)C(=O)O)c(N2CCC(C)(C)CC2)c1-c1ccc2c(c1)CCN(c1ccc(C(F)(F)F)nn1)C2 [Compound 35],0.01
3,COc1nccc(N2CCc3cc(-c4c(C)nc(C)c([C@H](OC(C)(C)C)C(=O)O)c4N4CCC(C)(C)CC4)ccc3C2)n1 [Compound 40],0.002
4,Cc1nc(C)c([C@H](OC(C)(C)C)C(=O)O)c(N2CCC(C)(C)CC2)c1-c1ccc2c(c1)CCN(c1cc(N3CCCC3)ncn1)C2 [Compound 48],0.003
5,Cc1nc(C)c([C@H](OC(C)(C)C)C(=O)O)c(N2CCC(C)(C)CC2)c1-c1ccc2c(c1)CCN(c1ncnc(N)c1C)C2 [Compound 55],0.004
6,COc1cc(N2CCc3cc(-c4c(C)nc(C)c([C@H](OC(C)(C)C)C(=O)O)c4N4CCC(C)(C)CC4)ccc3C2)nc(SC)n1 [Compound 62],0.004
7,Cc1nc(C)c([C@H](OC(C)(C)C)C(=O)O)c(N2CCC(C)(C)CC2)c1-c1ccc2c(c1)CCN(c1cc(O)nc(N)n1)C2 [Compound 66],0.32
8,Cc1nc(C)c([C@H](OC(C)(C)C)C(=O)O)c(N2CCC(C)(C)CC2)c1-c1ccc2c(c1)CCN(c1ccc3cnccc3n1)C2 [Compound 70],0.0005
9,Cc1nc(C)c([C@H](OC(C)(C)C)C(=O)O)c(N2CCC(C)(C)CC2)c1-c1ccc2c(c1)CCN(c1cnc3ccccc3n1)C2 [Compound 71],0.01
10,Cc1nc(C)c([C@H](OC(C)(C)C)C(=O)O)c(N2CCC(C)(C)CC2)c1-c1ccc2c(c1)CCN(c1ncc3cc(Br)ccc3n1)C2 [Compound 72],0.004
11,Cc1nc(C)c([C@H](OC(C)(C)C)C(=O)O)c(N2CCC(C)(C)CC2)c1-c1ccc2c(c1)CCN(c1ncc3ccccc3n1)C2 [Compound 73],0.002
12,COc1ccc2cnc(N3CCc4cc(-c5c(C)nc(C)c([C@H](OC(C)(C)C)C(=O)O)c5N5CCC(C)(C)CC5)ccc4C3)nc2c1 [Compound 74],0.006
13,Cc1nc(C)c([C@H](OC(C)(C)C)C(=O)O)c(N2CCC(C)(C)CC2)c1-c1ccc2c(c1)CCN(c1ncc3cc(F)ccc3n1)C2 [Compound 75],0.003
14,Cc1nc(C)c([C@H](OC(C)(C)C)C(=O)O)c(N2CCC(C)(C)CC2)c1-c1ccc2c(c1)CCN(c1ncnc3ccccc13)C2 [Compound 76],0.002
15,Cc1nc(C)c([C@H](OC(C)(C)C)C(=O)O)c(N2CCC(C)(C)CC2)c1-c1ccc2c(c1)CCN(c1nccc3cccnc13)C2 [Compound 77],0.002
